# Entries after “also recorded” stand apart in the source; their conditions may differ. Like-named read-outs stand apart in the source and are kept apart here.
# Assays:
# [1] = Dose-proportionality power regression of PK parameters; format: in vivo, human; conditions: 8–200-mg dose range t.i.w.
# [2] = tested on: patients with advanced solid tumors; assay: Dose-limiting toxicity, MTD and RP2D determination; format: in vivo, human
# clinical = conditions: human, plasma, oral; for AUC(0-inf): AUC0–inf; for AUC(0-t): AUC0–last
# [3] = for T1/2 / Tmax: 20 mg q.d.
# [4] = 4 mg, 4 mg q.d., cycle 1 Day 1, mean
# [5] = 4 mg, 4 mg q.d., cycle 1 Day 21, mean
# [6] = 8 mg, 8 mg q.d., cycle 1 Day 1, mean
# [7] = 8 mg, 8 mg t.i.w., cycle 1 Day 1, mean
# [8] = 8 mg, 8 mg q.d., cycle 1 Day 21, mean
# [9] = 8 mg, 8 mg t.i.w., cycle 1 Last Wednesday, mean
# [10] = 16 mg, 16 mg q.d., cycle 1 Day 1, mean
# [11] = 16 mg, 16 mg t.i.w., cycle 1 Day 1, mean
# [12] = 16 mg, 16 mg q.d., cycle 1 Day 21, mean
# [13] = 20 mg, 20 mg q.d., cycle 1 Day 1, mean
# [14] = 20 mg, 20 mg q.d., cycle 1 Day 21, mean
# [15] = 24 mg, 24 mg q.d., cycle 1 Day 1, mean
# [16] = 24 mg, 24 mg t.i.w., cycle 1 Day 1, mean
# [17] = 24 mg, 24 mg q.d., cycle 1 Day 21, mean
# [18] = 36 mg, 36 mg t.i.w., cycle 1 Day 1, mean
# [19] = 56 mg, 56 mg t.i.w., cycle 1 Day 1, mean
# [20] = 80 mg, 80 mg t.i.w., cycle 1 Day 1, mean
# [21] = 120 mg, 120 mg t.i.w., cycle 1 Day 1, mean
# [22] = 160 mg, 160 mg t.i.w., cycle 1 Day 1, mean
compound,measurement,setting,value
C=CC(=O)N1CC[C@H](n2nc(C#Cc3cc(OC)cc(OC)c3)c3c(N)ncnc32)C1 [futibatinib],Dose proportionality of Cmax,[1],less than a dose-proportional manner
same,Dose-limiting toxicities,"[2]; 4, 8, 16, or 20 mg q.d.",No DLTs were observed
same,Recommended phase II dose (RP2D),"[2]; human, in vivo, oral, 21 days",20 mg q.d.
same,Dose-limiting toxicities,[2]; other t.i.w. cohorts including 200 mg,no DLTs were reported
same,Maximum tolerated dose (MTD),[2]; q.d. schedule,20 mg q.d.
same,Maximum tolerated dose (MTD),"[2]; t.i.w. schedule, up to 200 mg",no MTD was defined; also recorded: not defined
same,Patients with CCA experiencing PR or SD,advanced solid tumors; 18 of 24 patients with cholangiocarcinoma,75%
same,Best overall response of confirmed partial response (PR),advanced solid tumors; across cohorts (n = 86),five
same,Responses lasting >6 months,advanced solid tumors; five responders,three
same,Responses occurring within 3 months of initiating futibatinib,advanced solid tumors; five responders,Four of five
same,AUC(0-inf),clinical; [4],117 ng·h/mL
same,AUC(0-t),clinical; [4],114 ng·h/mL
same,AUC(0-t),clinical; [5],134 ng·h/mL
same,Cmax,clinical; [4],33.1 ng/mL
same,Cmax,clinical; [5],52.5 ng/mL
same,half-life,"clinical; 4 mg, T1/2, 4 mg q.d., cycle 1 Day 1, mean",1.75 h
same,half-life,"clinical; 4 mg, T1/2, 4 mg q.d., cycle 1 Day 21, mean",1.63 h
same,Tmax,"clinical; 4 mg, 4 mg q.d., cycle 1 Day 1, median",0.96 h
same,Tmax,"clinical; 4 mg, 4 mg q.d., cycle 1 Day 21, median",1.08 h
same,AUC(0-inf),clinical; [6],524 ng·h/mL
same,AUC(0-inf),clinical; [7],315 ng·h/mL
same,AUC(0-t),clinical; [6],666 ng·h/mL
same,AUC(0-t),clinical; [8],550 ng·h/mL
same,AUC(0-t),clinical; [7],304 ng·h/mL
same,AUC(0-t),clinical; [9],472 ng·h/mL
same,Cmax,clinical; [6],169 ng/mL
same,Cmax,clinical; [8],98.2 ng/mL
same,Cmax,clinical; [7],85.5 ng/mL
same,Cmax,clinical; [9],106 ng/mL
same,half-life,"clinical; 8 mg, T1/2, 8 mg q.d., cycle 1 Day 1, mean",2.26 h
same,half-life,"clinical; 8 mg, T1/2, 8 mg q.d., cycle 1 Day 21, mean",2.75 h
same,half-life,"clinical; 8 mg, T1/2, 8 mg t.i.w., cycle 1 Day 1, mean",2.08 h
same,half-life,"clinical; 8 mg, T1/2, 8 mg t.i.w., cycle 1 Last Wednesday, mean",2.01 h
same,Tmax,"clinical; 8 mg, 8 mg q.d., cycle 1 Day 1, median",2 h
same,Tmax,"clinical; 8 mg, 8 mg q.d., cycle 1 Day 21, median",2 h
same,Tmax,"clinical; 8 mg, 8 mg t.i.w., cycle 1 Day 1, median",1.04 h
same,AUC(0-inf),clinical; [10],549 ng·h/mL
same,AUC(0-inf),clinical; [11],744 ng·h/mL
same,AUC(0-t),clinical; [10],536 ng·h/mL
same,AUC(0-t),clinical; [12],737 ng·h/mL
same,AUC(0-t),clinical; [11],736 ng·h/mL
same,Cmax,clinical; [10],148 ng/mL
same,Cmax,clinical; [12],172 ng/mL
same,Cmax,clinical; [11],207 ng/mL
same,Cmax,"clinical; 16 mg, 16 mg t.i.w., cycle 1 Last Wednesday, mean",213 ng/mL
same,half-life,"clinical; 16 mg, T1/2, 16 mg q.d., cycle 1 Day 1, mean",2.73 h
same,half-life,"clinical; 16 mg, T1/2, 16 mg q.d., cycle 1 Day 21, mean",2.53 h
same,half-life,"clinical; 16 mg, T1/2, 16 mg t.i.w., cycle 1 Day 1, mean",2.11 h
same,half-life,"clinical; 16 mg, T1/2, 16 mg t.i.w., cycle 1 Last Wednesday, mean",2.75 h
same,Tmax,"clinical; 16 mg, 16 mg q.d., cycle 1 Day 1, median",2 h
same,Tmax,"clinical; 16 mg, 16 mg q.d., cycle 1 Day 21, median",2.07 h
same,Tmax,"clinical; 16 mg, 16 mg t.i.w., cycle 1 Day 1, median",1 h
same,Tmax,"clinical; 16 mg, 16 mg t.i.w., cycle 1 Last Wednesday, median",1 h
same,AUC(0-inf),clinical; [13],1300 ng·h/mL
same,AUC(0-t),clinical; [13],1190 ng·h/mL
same,AUC(0-t),clinical; [14],1180 ng·h/mL
same,Cmax,clinical; [13],257 ng/mL
same,Cmax,clinical; [14],171 ng/mL
same,half-life,"clinical; 20 mg, T1/2, 20 mg q.d., cycle 1 Day 1, mean",~3 h
same,half-life,"clinical; 20 mg, T1/2, 20 mg q.d., cycle 1 Day 21, mean",~3 h
same,AUC(0-inf),clinical; [15],1270 ng·h/mL
same,AUC(0-inf),clinical; [16],2200 ng·h/mL
same,AUC(0-t),clinical; [15],1220 ng·h/mL
same,AUC(0-t),clinical; [17],1420 ng·h/mL
same,AUC(0-t),clinical; [16],1790 ng·h/mL
same,Cmax,clinical; [15],246 ng/mL
same,Cmax,clinical; [17],194 ng/mL
same,Cmax,clinical; [16],258 ng/mL
same,Cmax,"clinical; 24 mg, 24 mg t.i.w., cycle 1 Last Wednesday, mean",361 ng/mL
same,half-life,"clinical; 24 mg, T1/2, 24 mg q.d., cycle 1 Day 1, mean",3.13 h
same,half-life,"clinical; 24 mg, T1/2, 24 mg q.d., cycle 1 Day 21, mean",3.12 h
same,half-life,"clinical; 24 mg, T1/2, 24 mg t.i.w., cycle 1 Day 1, mean",3.52 h
same,half-life,"clinical; 24 mg, T1/2, 24 mg t.i.w., cycle 1 Last Wednesday, mean",5.99 h
same,Tmax,"clinical; 24 mg, 24 mg q.d., cycle 1 Day 1, median",1.98 h
same,Tmax,"clinical; 24 mg, 24 mg q.d., cycle 1 Day 21, median",2 h
same,Tmax,"clinical; 24 mg, 24 mg t.i.w., cycle 1 Day 1, median",3 h
same,Tmax,"clinical; 24 mg, 24 mg t.i.w., cycle 1 Last Wednesday, median",1.05 h
same,AUC(0-inf),clinical; [18],2680 ng·h/mL
same,AUC(0-t),clinical; [18],2670 ng·h/mL
same,Cmax,clinical; [18],556 ng/mL
same,Cmax,"clinical; 36 mg, 36 mg t.i.w., cycle 1 Last Wednesday, mean",736 ng/mL
same,half-life,"clinical; 36 mg, T1/2, 36 mg t.i.w., cycle 1 Day 1, mean",4.84 h
same,half-life,"clinical; 36 mg, T1/2, 36 mg t.i.w., cycle 1 Last Wednesday, mean",6.57 h
same,Tmax,"clinical; 36 mg, 36 mg t.i.w., cycle 1 Day 1, median",2 h
same,Tmax,"clinical; 36 mg, 36 mg t.i.w., cycle 1 Last Wednesday, median",2.56 h
same,AUC(0-inf),clinical; [19],3300 ng·h/mL
same,AUC(0-t),clinical; [19],3290 ng·h/mL
same,Cmax,clinical; [19],695 ng/mL
same,Cmax,"clinical; 56 mg, 56 mg t.i.w., cycle 1 Last Wednesday, mean",930 ng/mL
same,half-life,"clinical; 56 mg, T1/2, 56 mg t.i.w., cycle 1 Day 1, mean",5.97 h
same,half-life,"clinical; 56 mg, T1/2, 56 mg t.i.w., cycle 1 Last Wednesday, mean",6.24 h
same,Tmax,"clinical; 56 mg, 56 mg t.i.w., cycle 1 Day 1, median",3.08 h
same,Tmax,"clinical; 56 mg, 56 mg t.i.w., cycle 1 Last Wednesday, median",2 h
same,AUC(0-inf),clinical; [20],9560 ng·h/mL
same,AUC(0-t),clinical; [20],7470 ng·h/mL
same,Cmax,clinical; [20],964 ng/mL
same,Cmax,"clinical; 80 mg, 80 mg t.i.w., cycle 1 Last Wednesday, mean",757 ng/mL
same,half-life,"clinical; 80 mg, T1/2, 80 mg t.i.w., cycle 1 Day 1, mean",4.77 h
same,half-life,"clinical; 80 mg, T1/2, 80 mg t.i.w., cycle 1 Last Wednesday, mean",5.28 h
same,Tmax,"clinical; 80 mg, 80 mg t.i.w., cycle 1 Last Wednesday, median",3 h
same,AUC(0-inf),clinical; [21],5310 ng·h/mL
same,AUC(0-t),clinical; [21],6640 ng·h/mL
same,Cmax,clinical; [21],713 ng/mL
same,Cmax,"clinical; 120 mg, 120 mg t.i.w., cycle 1 Last Wednesday, mean",910 ng/mL
same,half-life,"clinical; 120 mg, T1/2, 120 mg t.i.w., cycle 1 Day 1, mean",6.18 h
same,half-life,"clinical; 120 mg, T1/2, 120 mg t.i.w., cycle 1 Last Wednesday, mean",10.6 h
same,Tmax,"clinical; 120 mg, 120 mg t.i.w., cycle 1 Day 1, median",3.04 h
same,Tmax,"clinical; 120 mg, 120 mg t.i.w., cycle 1 Last Wednesday, median",3.17 h
same,AUC(0-t),clinical; [22],7980 ng·h/mL
same,Cmax,clinical; [22],819 ng/mL
same,Cmax,"clinical; 160 mg, 160 mg t.i.w., cycle 1 Last Wednesday, mean",863 ng/mL
same,half-life,"clinical; 160 mg, T1/2, 160 mg t.i.w., cycle 1 Day 1, mean",8.75 h
same,half-life,"clinical; 160 mg, T1/2, 160 mg t.i.w., cycle 1 Last Wednesday, mean",3.99 h
same,Tmax,"clinical; 160 mg, 160 mg t.i.w., cycle 1 Day 1, median",2.52 h
same,Tmax,"clinical; 160 mg, 160 mg t.i.w., cycle 1 Last Wednesday, median",5.57 h
same,Cmax,"clinical; 200 mg, 200 mg t.i.w., cycle 1 Day 1, mean",1290 ng/mL
same,Cmax,"clinical; 200 mg, 200 mg t.i.w., cycle 1 Last Wednesday, n 1",845 ng/mL
same,half-life,"clinical; 200 mg, T1/2, 200 mg t.i.w., cycle 1 Day 1, mean",9.55 h
same,Tmax,"clinical; 200 mg, 200 mg t.i.w., cycle 1 Day 1, median",2 h
same,T1/2,"[3]; cycle 1 Day 1, mean",2.94 h
same,Tmax,"[3]; cycle 1 Day 1, median",1.92 h
same,T1/2,"[3]; cycle 1 Day 21, mean",3.44 h
same,Tmax,"[3]; cycle 1 Day 21, median",3.52 h
same,Accumulation with repeated doses,[3]; both schedules,no significant accumulation
same,Urinary excretion of futibatinib,[3]; urine,lower than 0.01 % of the dose

# Reference: publication PMC9743148 (Annals of oncology : official journal of the European …, 2020)
